Results reported in US20230355647A1, “Marker for determining anti-cancer effects of mitochondrial oxidative phosphorylation pathway inhibitor” (NANJING SHIJIANG MEDICINE TECHNOLOGY CO., LTD, priority 2020, published 2023).

How the values were obtained:
GB-1 = assay: Cell viability (CellTiter-Glo), GB-1; type: cell-based; details: Homo sapiens; GB-1 cell line, 3-4 days of culture
Protocol: (§1) Cell viability was detected using the Promega CellTiter-Glo kit, the kit reflected cell viability by directly measuring intracellular ATP content. The inhibitory effect (IC50 value) of Gboxin, a mitochondrial oxidative phosphorylation pathway inhibitor, on different tumor cell lines was tested in the Example. The name, source, and culture condition of each tumor cell line were as follows:
Cell line GB-1 (JCRB, No. IFO50489) was cultured in 10% fetal bovine serum-containing DMEM medium (+P/S).
The above tumor cells were cultured in the relevant medium (+P/S), and incubated for 3 h, then the gradient diluted Gboxin was added, and IC50 (50% inhibiting concentration) was measured after 3-4 days of culture.
Cell viability was detected using the Promega CellTiter-Glo kit, the kit reflected cell viability by directly measuring intracellular ATP content. In this experiment, the IC50 values of Oligomycin A or IACS-010759, a mitochondrial oxidative phosphorylation pathway inhibitor, on different tumor cells was determined.
The different tumor cells were cultured in the relevant medium (+P/S) as shown in Example 2, and incubated for 3 h, then the gradient diluted Oligomycin A or IACS-010759 was added respectively, and IC50 (50% inhibiting concentration) of Oligomycin A or IACS-010759 on different tumor cells was measured after 3-4 days of culture.

SF126 = assay: Cell viability (CellTiter-Glo), SF126; type: cell-based; details: Homo sapiens, SF-126; SF126 cell line, 3-4 days of culture
Protocol: as §1, with “follows: Cell line SF126 (JCRB, No. IFO50286) was cultured in 10% fetal bovine serum-containing EMEM medium (+P/S). […] Cell viability was detected using the Promega CellTiter-Glo kit, the kit reflected cell viability by directly measuring intracellular ATP content.” for “follows:”

MDA-MB-453 = assay: Cell viability (CellTiter-Glo), MDA-MB-453; type: cell-based; details: Homo sapiens; MDA-MB-453 cell line, 3-4 days of culture
Protocol: as §1, with “follows: Cell line MDA-MB-453 (ATCC, No. HTB-131) was cultured in 10% fetal bovine serum-containing Leibovitz's L-15 medium (+P/S). […] Cell viability was detected using the Promega CellTiter-Glo kit, the kit reflected cell viability by directly measuring intracellular ATP content.” for “follows:”

SW48 = assay: Cell viability (CellTiter-Glo), SW48; type: cell-based; details: Homo sapiens; SW48 cell line, 3-4 days of culture
Protocol: as §1, with “follows: Cell line SW48 (ATCC, No. CCL-231) was cultured in 10% fetal bovine serum-containing Leibovitz's L-15 medium (+P/S). […] Cell viability was detected using the Promega CellTiter-Glo kit, the kit reflected cell viability by directly measuring intracellular ATP content.” for “follows:”

WSU-DLCL2 = assay: Cell viability (CellTiter-Glo), WSU-DLCL2; type: cell-based; details: Homo sapiens, WSUDLCL2; WSU-DLCL2 cell line, 3-4 days of culture
Protocol: as §1, with “follows: Cell line WSU-DLCL2 (DSMZ, No. ACC-575) was cultured in 10% fetal bovine serum-containing RPMI1640 medium (+P/S). […] Cell viability was detected using the Promega CellTiter-Glo kit, the kit reflected cell viability by directly measuring intracellular ATP content.” for “follows:”

[1] = system: brain tumors and acute myeloid leukemia; details: study published in Nature Medicine (2018); cited from earlier work
CFPAC-1 = assay: Cell viability (CellTiter-Glo), CFPAC-1; type: cell-based; details: Homo sapiens; CFPAC-1 cell line, 3-4 days of culture
Protocol: as §1, with “follows: Cell line CFPAC-1 (ATCC, No. CRL-1918) was cultured in 10% fetal bovine serum-containing IMDM medium (+P/S). […] Cell viability was detected using the Promega CellTiter-Glo kit, the kit reflected cell viability by directly measuring intracellular ATP content.” for “follows:”

786-O = assay: Cell viability (CellTiter-Glo), 786-O; type: cell-based; details: Homo sapiens, 786-0; 786-O cell line, 3-4 days of culture
Protocol: as §1, with “follows: Cell line 786-O (ATCC, No. CRL-1932) was cultured in 10% fetal bovine serum-containing RPMI1640 medium (+P/S). […] Cell viability was detected using the Promega CellTiter-Glo kit, the kit reflected cell viability by directly measuring intracellular ATP content.” for “follows:”

[2] = system: mitochondrial oxidative phosphorylation pathway; assay: Oxygen consumption of NCI-H82 cell, Seahorse XFe metabolic analyzer; type: cell-based, human; details: detection within 0.5 h, compared with control group, FIG. 1 (n=3)
Source text: The oxygen was mainly consumed by mitochondrial oxidative phosphorylation pathway in the cell, thus the determination of oxygen consumption rate (OCR) of mitochondria could directly reflect the activity of mitochondrial oxidative phosphorylation pathway. The oxygen consumption of NCI-H82 cell in the presence or absence of Oligomycin A, Gboxin, S-Gboxin and IACS-010759, mitochondrial oxidative phosphorylation pathway inhibitors, was detected using Seahorse XFe metabolic analyzer in the present Example. NCI-H82 cell (ATCC, No. […] The control group in absence of mitochondrial oxidative phosphorylation pathway inhibitor was set. The detection of cell oxygen consumption was finished within 0.5 h.

G-401 = assay: Cell viability (CellTiter-Glo), G-401; type: cell-based; details: Homo sapiens; G-401 cell line, 3-4 days of culture
Protocol: as §1, with “follows: Cell line G-401 (ATCC, No. CRL-1441) was cultured in 10% fetal bovine serum-containing McCoy's 5a medium (+P/S). […] Cell viability was detected using the Promega CellTiter-Glo kit, the kit reflected cell viability by directly measuring intracellular ATP content.” for “follows:”

NCI-H82 = assay: Cell viability (CellTiter-Glo), NCI-H82; type: cell-based; details: Homo sapiens; NCI-H82 cell line, 3-4 days of culture
Protocol: as §1, with “follows: Cell line NCI-H82 (ATCC, No. HTB-175) was cultured in 10% fetal bovine serum-containing RPMI1640 medium (+P/S). […] Cell viability was detected using the Promega CellTiter-Glo kit, the kit reflected cell viability by directly measuring intracellular ATP content.” for “follows:”

NCI-H82 tumor = assay: Subcutaneous NCI-H82 tumor-bearing nude mice; type: in vivo; details: nude mice inoculated with NCI-H82; 10 mg/kg/day intraperitoneally; vs solvent vehicle; FIG. 25
Source text: (§2) To verify whether cells sensitive to mitochondrial oxidative phosphorylation pathway […] still maintained the sensitivity to oxidative phosphorylation pathway inhibitors in vivo, S-Gboxin was used to test the effectiveness in tumor-bearing mice subcutaneously inoculated with sensitive cells (NCI-H82) and insensitive cells (CFPAC-1).
(§3) 5×10^6 of NCI-H82, NCI-H82-NNMT^ov (inserting the NNMT gene into NCI-H82 cell using a viral vector to overexpress NNMT protein) and CFPAC-1 tumors were subcutaneously inoculated in nude mice to establish tumor-bearing mice. Each group of tumor-bearing mice was injected intraperitoneally with the S-Gboxin (a mitochondrial oxidative phosphorylation pathway inhibition) at a dose of 10 mg/kg/day, the inhibition effect of S-Gboxin on the tumor was investigated. The mice in control group was injected intraperitoneally with solvent vehicle in the same method, and the tumor volume was calculated as follows: tumor volume=½ length×width 2. The experiment result was shown in FIG. 25, FIG. 26, and FIG. 27.

NCI-H82-NNMT^ov tumor = assay: Subcutaneous NCI-H82-NNMT^ov tumor-bearing nude mice; type: in vivo; details: nude mice inoculated with NCI-H82-NNMT^ov; 10 mg/kg/day intraperitoneally; compared with effect on NCI-H82 tumor; FIG. 26
Source text: as §2, §3

CFPAC-1 tumor = assay: Subcutaneous CFPAC-1 tumor-bearing nude mice; type: in vivo; details: nude mice inoculated with CFPAC-1; 10 mg/kg/day intraperitoneally; vs solvent vehicle; FIG. 27
Source text: as §2, §3

## Cc1nc(-c2nc(-c3ccc(OC(F)(F)F)cc3)no2)nn1Cc1cccc(N2CCC(S(C)(=O)=O)CC2)c1 [IACS-010759]
GB-1
  IC50: > 15 µM
SF126
  IC50: > 15 µM
MDA-MB-453
  IC50: < 0.01 µM
SW48
  IC50: < 0.01 µM
WSU-DLCL2
  IC50: 3.56 µM
[1]
  inhibitory effect on brain tumors and acute myeloid leukemia: excellent inhibitory effect
CFPAC-1
  IC50: 55.7 µM
786-O
  IC50: > 50 µM
[2]; 1 μM inhibitor
  oxygen consumption of NCI-H82 cells: significantly inhibit
G-401
  IC50: 1.48 µM
NCI-H82
  IC50: 0.168 µM

## CC(C)[C@@H]1CC[C@@H](C)C[C@H]1OC(=O)Cn1c(-c2cccc(C(F)(F)F)c2)[n+](C)c2ccccc21.[I-] [S-Gboxin]
NCI-H82 tumor
  inhibition of subcutaneous tumor (tumor volume): significantly inhibit
NCI-H82-NNMT^ov tumor
  inhibitory effect on subcutaneous tumor (tumor volume): significantly weaker
CFPAC-1 tumor
  inhibitory effect on subcutaneous tumor (tumor volume): no significant inhibitory effect
[2]; 5 μM inhibitor
  oxygen consumption of NCI-H82 cells: significantly inhibit
